From the NIST ThermoML archive (doi:10.1021/je060271a)
Where “and” joins values, the source holds several entries; their conditions need not be identical. Equal values may be shown once.

Conditions: 283.15 K, Liquid, Vibrating tube method

CCCCCC(=O)OCC(COC(=O)CCCCC)(COC(=O)CCCCC)COC(=O)CCCCC [pentaerythritol tetrahexanoate]
Conditions	mass density
10919 kPa	1010.4 kg/m3
10934 kPa	1010.4 kg/m3
10949 kPa	1010.4 kg/m3
10966 kPa	1010.5 kg/m3
10983 kPa	1010.4 kg/m3
10998 kPa	1010.5 kg/m3
11013 kPa	1010.5 kg/m3
11028 kPa	1010.6 kg/m3
11046 kPa	1010.5 kg/m3
11060 kPa	1010.6 kg/m3
11075 kPa	1010.4 kg/m3
11093 kPa	1010.5 kg/m3
11108 kPa	1010.6 kg/m3
11126 kPa	1010.6 kg/m3
11141 kPa	1010.5 kg/m3
11157 kPa	1010.6 kg/m3
11173 kPa	1010.6 kg/m3
11191 kPa	1010.5 kg/m3
11206 kPa	1010.6 kg/m3
11221 kPa	1010.5 kg/m3
11237 kPa	1010.6 kg/m3
11256 kPa	1010.5 kg/m3
11271 kPa	1010.6 kg/m3
11289 kPa	1010.8 kg/m3
11304 kPa	1010.6 kg/m3
11320 kPa	1010.7 kg/m3
11339 kPa	1010.7 kg/m3
11355 kPa	1010.7 kg/m3
11370 kPa	1010.6 kg/m3
11387 kPa	1010.7 kg/m3
11406 kPa	1010.7 kg/m3
11422 kPa	1010.7 kg/m3
11438 kPa	1010.7 kg/m3
11457 kPa	1010.8 kg/m3
11473 kPa	1010.8 kg/m3
11492 kPa	1010.7 kg/m3
11508 kPa	1010.8 kg/m3
11524 kPa	1010.8 kg/m3
11541 kPa	1010.7 kg/m3
11560 kPa	1010.8 kg/m3
11577 kPa	1010.7 kg/m3
11593 kPa	1010.8 kg/m3
11613 kPa	1010.9 kg/m3
11630 kPa	1010.7 kg/m3
11649 kPa	1010.9 kg/m3
11682 kPa	1010.8 kg/m3
11753 kPa	1010.9 kg/m3
11773 kPa	1011 kg/m3
11790 kPa	1010.9 kg/m3
11807 kPa	1010.8 kg/m3
11828 kPa	1011 kg/m3
11844 kPa	1010.9 kg/m3
11862 kPa	1010.9 kg/m3
11899 kPa	1011 kg/m3
11916 kPa	1011 kg/m3
11936 kPa	1011.1 kg/m3
11954 kPa	1010.9 kg/m3
11971 kPa	1011 kg/m3
11988 kPa	1011.1 kg/m3
12009 kPa	1011 kg/m3
12027 kPa	1011 kg/m3
12044 kPa	1011 kg/m3
12062 kPa	1011.2 kg/m3
12082 kPa	1011.1 kg/m3
12099 kPa	1011.2 kg/m3
12119 kPa	1011.2 kg/m3
12137 kPa	1011.1 kg/m3
12154 kPa	1011.1 kg/m3
12171 kPa	1011 kg/m3
12192 kPa	1011.2 kg/m3
12209 kPa	1011.1 kg/m3
12231 kPa	1011.3 kg/m3
12249 kPa	1011.2 kg/m3
12267 kPa	1011.2 kg/m3
12290 kPa	1011.1 kg/m3
12309 kPa	1011.2 kg/m3
12310 kPa	1011.2 kg/m3
12311 kPa	1011.2 kg/m3
12312 kPa	1011.2 kg/m3 and 1011.4 kg/m3
12313 kPa	1011.1 kg/m3
12314 kPa	1011.2 kg/m3 and 1011.3 kg/m3
12315 kPa	1011.3 kg/m3
12316 kPa	1011.2 kg/m3
12317 kPa	1011.2 kg/m3
12318 kPa	1011.3 kg/m3 and 1011.2 kg/m3
12319 kPa	1011.4 kg/m3 and 1011.1 kg/m3
12320 kPa	1011.3 kg/m3 and 1011.2 kg/m3
12321 kPa	1011.2 kg/m3
12322 kPa	1011.3 kg/m3 and 1011.2 kg/m3
12323 kPa	1011.3 kg/m3 and 1011.2 kg/m3
12324 kPa	1011.3 kg/m3
12325 kPa	1011.2 kg/m3 and 1011.3 kg/m3
12326 kPa	1011.2 kg/m3 and 1011 kg/m3
12327 kPa	1011.3 kg/m3
12328 kPa	1011.2 kg/m3
12332 kPa	1011.3 kg/m3
12334 kPa	1011.3 kg/m3
12336 kPa	1011.3 kg/m3
12339 kPa	1011.4 kg/m3
12343 kPa	1011.3 kg/m3 and 1011.2 kg/m3
12348 kPa	1011.2 kg/m3
12351 kPa	1011.1 kg/m3
12354 kPa	1011.4 kg/m3
12356 kPa	1011.2 kg/m3
12359 kPa	1011.2 kg/m3
12362 kPa	1011.3 kg/m3
12363 kPa	1011.2 kg/m3
12364 kPa	1011.3 kg/m3
12366 kPa	1011.3 kg/m3
12380 kPa	1011.2 kg/m3
12399 kPa	1011.3 kg/m3
12414 kPa	1011.3 kg/m3
12431 kPa	1011.3 kg/m3
12446 kPa	1011.2 kg/m3
12461 kPa	1011.2 kg/m3
12476 kPa	1011.4 kg/m3
12494 kPa	1011.4 kg/m3
12509 kPa	1011.3 kg/m3
12527 kPa	1011.3 kg/m3
12543 kPa	1011.3 kg/m3
12558 kPa	1011.3 kg/m3
12577 kPa	1011.3 kg/m3
12592 kPa	1011.4 kg/m3
12607 kPa	1011.5 kg/m3
12622 kPa	1011.2 kg/m3
12640 kPa	1011.4 kg/m3
12656 kPa	1011.5 kg/m3
12674 kPa	1011.4 kg/m3
12689 kPa	1011.3 kg/m3
12705 kPa	1011.5 kg/m3
12723 kPa	1011.3 kg/m3
12738 kPa	1011.5 kg/m3
12754 kPa	1011.5 kg/m3
12768 kPa	1011.5 kg/m3
12786 kPa	1011.4 kg/m3
12800 kPa	1011.5 kg/m3
12814 kPa	1011.5 kg/m3
12831 kPa	1011.5 kg/m3
12845 kPa	1011.5 kg/m3
12862 kPa	1011.5 kg/m3
12875 kPa	1011.5 kg/m3
12889 kPa	1011.5 kg/m3
12903 kPa	1011.5 kg/m3
12919 kPa	1011.4 kg/m3
12933 kPa	1011.6 kg/m3
12947 kPa	1011.7 kg/m3
12961 kPa	1011.5 kg/m3
12978 kPa	1011.5 kg/m3
12991 kPa	1011.6 kg/m3
13005 kPa	1011.6 kg/m3
13019 kPa	1011.6 kg/m3
13036 kPa	1011.6 kg/m3
13050 kPa	1011.7 kg/m3
13064 kPa	1011.4 kg/m3
13081 kPa	1011.6 kg/m3
13095 kPa	1011.5 kg/m3
13109 kPa	1011.6 kg/m3
13126 kPa	1011.7 kg/m3
13139 kPa	1011.7 kg/m3
13156 kPa	1011.7 kg/m3
13170 kPa	1011.7 kg/m3
13185 kPa	1011.7 kg/m3
13202 kPa	1011.8 kg/m3
13216 kPa	1011.7 kg/m3
13233 kPa	1011.7 kg/m3
13247 kPa	1011.7 kg/m3
13262 kPa	1011.8 kg/m3
13276 kPa	1011.9 kg/m3
13293 kPa	1011.7 kg/m3
13308 kPa	1011.8 kg/m3
13322 kPa	1011.7 kg/m3
13340 kPa	1011.8 kg/m3
13355 kPa	1011.8 kg/m3
13372 kPa	1011.8 kg/m3
13386 kPa	1011.9 kg/m3
13401 kPa	1011.8 kg/m3
13419 kPa	1012 kg/m3
13434 kPa	1011.8 kg/m3
13448 kPa	1011.8 kg/m3
13466 kPa	1011.8 kg/m3
13481 kPa	1012 kg/m3
13496 kPa	1011.9 kg/m3
13514 kPa	1011.8 kg/m3
13529 kPa	1011.9 kg/m3
13544 kPa	1012 kg/m3
13559 kPa	1012 kg/m3
13577 kPa	1011.9 kg/m3
13592 kPa	1011.9 kg/m3
13607 kPa	1011.9 kg/m3
13625 kPa	1011.8 kg/m3
13640 kPa	1012 kg/m3
13655 kPa	1012.1 kg/m3
13669 kPa	1012 kg/m3
13687 kPa	1012.1 kg/m3
13702 kPa	1012 kg/m3
13716 kPa	1011.8 kg/m3
13735 kPa	1012 kg/m3
13750 kPa	1011.9 kg/m3
13765 kPa	1011.9 kg/m3
13782 kPa	1012.1 kg/m3
13797 kPa	1012.1 kg/m3
13810 kPa	1012.1 kg/m3
13827 kPa	1012.1 kg/m3
13842 kPa	1011.9 kg/m3
13855 kPa	1012 kg/m3
13870 kPa	1012.1 kg/m3
13883 kPa	1012.1 kg/m3
13894 kPa	1012.1 kg/m3
13906 kPa	1012 kg/m3
13920 kPa	1012.1 kg/m3
13934 kPa	1012.3 kg/m3
13949 kPa	1012.2 kg/m3
13966 kPa	1012.1 kg/m3
13981 kPa	1012.1 kg/m3
13996 kPa	1012.2 kg/m3
14013 kPa	1012.1 kg/m3
14027 kPa	1012.2 kg/m3
14042 kPa	1012.1 kg/m3
14058 kPa	1012.2 kg/m3
14073 kPa	1012.3 kg/m3
14087 kPa	1012.2 kg/m3
14104 kPa	1012.2 kg/m3
14118 kPa	1012.1 kg/m3
14133 kPa	1012.2 kg/m3
14150 kPa	1012.1 kg/m3
14164 kPa	1012.3 kg/m3
14179 kPa	1012.3 kg/m3
14196 kPa	1012.2 kg/m3
14211 kPa	1012.2 kg/m3
14225 kPa	1012.2 kg/m3
14243 kPa	1012.1 kg/m3
14257 kPa	1012.3 kg/m3
14272 kPa	1012.3 kg/m3
14289 kPa	1012.3 kg/m3
14304 kPa	1012.3 kg/m3
14320 kPa	1012.4 kg/m3
14335 kPa	1012.4 kg/m3
14350 kPa	1012.3 kg/m3
14368 kPa	1012.2 kg/m3
14382 kPa	1012.4 kg/m3
14397 kPa	1012.4 kg/m3
14415 kPa	1012.6 kg/m3
14430 kPa	1012.3 kg/m3
14448 kPa	1012.4 kg/m3
14463 kPa	1012.3 kg/m3
14478 kPa	1012.3 kg/m3
14496 kPa	1012.4 kg/m3
14511 kPa	1012.4 kg/m3
14527 kPa	1012.4 kg/m3
14542 kPa	1012.5 kg/m3
14560 kPa	1012.4 kg/m3
14575 kPa	1012.4 kg/m3
14591 kPa	1012.4 kg/m3
14609 kPa	1012.6 kg/m3
14624 kPa	1012.5 kg/m3
14640 kPa	1012.4 kg/m3
14658 kPa	1012.5 kg/m3
14674 kPa	1012.5 kg/m3
14689 kPa	1012.4 kg/m3
14708 kPa	1012.4 kg/m3
14724 kPa	1012.5 kg/m3
14739 kPa	1012.5 kg/m3
14755 kPa	1012.5 kg/m3
14774 kPa	1012.5 kg/m3
14790 kPa	1012.6 kg/m3
14805 kPa	1012.6 kg/m3
14824 kPa	1012.6 kg/m3
14840 kPa	1012.7 kg/m3
14856 kPa	1012.7 kg/m3
14875 kPa	1012.6 kg/m3
14891 kPa	1012.7 kg/m3
14907 kPa	1012.7 kg/m3
14926 kPa	1012.7 kg/m3
14942 kPa	1012.6 kg/m3
14959 kPa	1012.8 kg/m3
14974 kPa	1012.7 kg/m3
14993 kPa	1012.7 kg/m3
15008 kPa	1012.6 kg/m3
15024 kPa	1012.8 kg/m3
15042 kPa	1012.7 kg/m3
15058 kPa	1012.8 kg/m3
15074 kPa	1012.7 kg/m3
15090 kPa	1012.8 kg/m3
15108 kPa	1012.8 kg/m3
15124 kPa	1012.8 kg/m3
15140 kPa	1012.8 kg/m3
15159 kPa	1012.7 kg/m3
15175 kPa	1012.9 kg/m3
15190 kPa	1012.9 kg/m3
15209 kPa	1012.8 kg/m3
